# Patent US5360794A, “Disubstituted and deoxy disubstituted derivatives of α-D-mannofuranosides and β-L-gulofuranosides having anti-inflammatory and anti-proliferative activity” (Medicarb Inc., priority 1992, dated 1994)
# Assays:
# [1] = tested on: mouse spleen cells (T-lymphocyte response to Con-A); assay: Concanavalin A assay (mouse spleen cell mitogen induced blastogenesis); type: cell-based; conditions: estimated IC50, Con-A 1.25 μg/ml, 3 days, MTT
# Description: iii Concanavalin A assay (the mouse spleen cell mitogen induced blastogenesis).
# The MLR assay measures the effects of a study compound on the activation and antigen presentation of T-lymphocytes, therefore determining immunomodulatory properties. The mouse spleen cell mitogen-induced blastogenesis and the BUD-8 human fibroblast proliferation assays measure the effects of the compounds of the present invention on cellular proliferation of cells involved in the pathogenesis of autoimmune diseases. These two assays are appropriate as screens to ascertain anti-inflammatory and/or autoimmune beneficial activity and are art accepted for such purposes.
# It is known that the induction and maintenance of most inflammatory diseases are typically due to the unrestricted activity of T-lymphocytes. Therefore, it is advantageous to identify compounds which are modulators of T-lymphocyte activity for eventual use in the regulation of inflammatory diseases, including acquired immune deficiency syndrome, psoriasis, systemic lupus, erythromatosus, and rheumatoid arthritis.
# A simple method is used to screen compounds for their ability to modulate T-lymphocyte activity which comprises assessing the capacity of the compounds to alter the activation of murine spleen cells in response to T-lymphocyte mitogen activators, such as Conconavalin-A (Con-A). The method used to measure the effects of the compounds of the present invention on the blastogenic response of spleen cells to the T-lymphocyte mitogen (Con-A) is as follows:
# The response of a mouse spleen cells to the T cell mitogen Con-A is a classical assay. In this assay, mice were euthanized by cervical dislocation and their spleens removed surgically. A single cell suspension of the spleens was prepared in culture medium (RPMI-1640 with hepes, supplemented with 10% calf serum, 2 mM glutamine, 500 units penicillin/streptomycin, and 4×10^-5 M 2-mercaptoethanol) using a Teflon pestle. The cells were centrifuged at 1500 RPM and the pellets resuspended in ACT (0.15M Tris, 0.14M Ammonium chloride, pH 7.2) in orde to lyse the red blood cells. After a five minutes incubation in a 37° C. waterbath, the cells were washed and resuspended in culture medium. The splenic lymphocytes were counted using an electronic Coulter Counter and diluted to 5.0×10^6 cells/ml.
# The test articles were diluted in culture medium to the appropriate concentrations. 100 μl aliquots were distributed to triplicate wells in a 96-well microtiter plate. 50 μl of lymphocytes (2.5×10^5 cells) were added to each well. Control wells with vehicle and wells with media were also run. Plates were incubated for one hour at 37° C. 50 μl of Con-A ([…]) were then added to the wells to result in a final concentration of 1.25 μg/ml. After incubation at 37° C. with 5% carbon dioxide for 3 days, proliferation was measured by adding 20 μl of MTT (10 mg/mlin PBS) [3-(4,5-dimethyl-thiazol-2-yl)-2,5-diphenyl tetrazolium bromide] to each well. Plates were incubated for 4 hours at 37° C., after which 180 μl of 10% SDS in PBS were added. After an overnight incubation, the optical density (OD) of each well was read using a Molecular Devices microplate reader at 570-650 nm.
# Duplicate cultures without Con-A were also set up. After 3 days of incubation, supernatants were assayed for lactate dehydrogenase activity to determine the viability of the cells, which is an indication of the toxicity of the test article on the splenic lymphocytes. 0.1 ml of supernatant was mixed with 0.1 ml of the LDH substrate mixture which contains 5.4×10^-2 M L(+) lactate, 6.6×10^-4 M 2-p-iodophenyl-3-p-nitrophenyl tetrazolium chloride, 2.8×10^-4 M phenazine methosulfate, 1.3×10^-3 M NAD, and 0.2M Tris buffer, pH 8.2. Plates were read immediately for 5 minutes at 490 nm using a Molecular Devices microplate reader.
# The mean for each test article treated group was determined and compared to the mean of the control group. […]
# [2] = tested on: various tumor cell lines (leukemia, melanoma, lung cancer, colon cancer, renal cancer, ovarian cancer, brain cancer); assay: Tumor cell line growth inhibition (average over lines of seven cancer types); type: cell-based; conditions: Log 10 values; average GI50 over tumor cell lines from seven cancer types; read-out: GI (μM) Log 10 values (Average GI50) (converted)
# Protocol: The compounds of the present invention were also tested against various tumor cell lines, derived from seven cancer types. These include leukemia, melanoma, lung cancer, colon cancer, renal cancer, ovarian cancer, and brain cancer. Most of the compounds have shown significant activity in various screens, particularly against colon cancer and melanoma.
# [3] = Mus musculus, T-lymphocyte, 72 h
Compound,"IC50 [1, 3] [µM]",GI50 [2] [µM],IC50 [1] [µM]
"CCCCCCCCCOCCCO[C@H]1O[C@H]([C@H](C)N2CCCC2)[C@@H]2OC(C)(C)O[C@H]12 [Compound 15, n-Nonyloxypropyl 5,6-dideoxy-2,3-O-(1-methylethylidene)-5-pyrrolidinyl-β-L-gulofuranoside]",2.8,–,–
"C[C@@H]([C@H]1O[C@H](OCCCc2ccccc2)[C@H]2OC(C)(C)O[C@H]21)N1CCCC1 [Compound 24, Phenylpropyl 5,6-dideoxy 2,3-O-(1-methylethylidene)-5-pyrrolidinyl-β-L-gulofuranoside]",28,95.5,–
"CCCCCCCCCOCCCO[C@H]1O[C@H]([C@H](O)CN2CCCCC2)[C@@H]2OC(C)(C)O[C@H]12 [Compound 4, n-Nonyloxypropyl 2,3-O-(1-methylethylidene)-6-deoxy-6-piperidinyl-α-D-mannofuranoside]",2.7,–,–
"CCCCCCCCCOCCCO[C@H]1O[C@H]([C@H](O)CN2CCCCCC2)[C@@H]2OC(C)(C)O[C@H]12 [Compound 6, n-Nonyloxypropyl 2,3-O-(1-methylethylidene)-6-deoxy-6-hexamethyleneimino-α-D-mannofuranoside]",3.2,–,–
"CCCCCCCCCOCCCO[C@H]1O[C@H]([C@@H](C)OCCN2CCCC2)[C@@H]2OC(C)(C)O[C@H]12 [Compound 12, n-Nonyloxypropyl 2,3-O-(1-methylethylidene)-6-deoxy-5-O-(N'-ethylpyrrolidinyl)-α-D-mannofuranoside]",3.2,–,–
"n-Nonyloxypropyl 2,3-O-(1-methylethylidene)-6-deoxy-6-aminothylpyrrolidinyl-α-D-mannofuranoside [Compound 7]",–,–,2.9
"CCCCCCCCCOCCCO[C@H]1O[C@H]([C@H](O)CN2CCCC2)[C@@H]2OC(C)(C)O[C@H]12 [Compound 3, n-Nonyloxypropyl 2,3-O-(1-methylethylidene)-6-deoxy-pyrrolidinyl-α-D-mannofuranoside]",3.3,9.12,–
"CC1(C)O[C@@H]2[C@H](O1)[C@@H](OCCCCN1CCCC1)O[C@@H]2[C@H](O)CO [Compound 29, 4'-(1-Pyrrolidinyl)butyl 2,3-O-(1-methylethylidene)-α-D-mannofuranoside]",49,–,–
"CCCCCCCCCOCCCO[C@H]1O[C@H]([C@H](O)CNCCCCCCC)[C@@H]2OC(C)(C)O[C@H]12 [Compound 8, n-Nonyloxypropyl 2,3-(1-methylethylidene)-6-deoxy-6-aminoheptyl-α-D-mannofuranoside]",17,2.29,–
"CCCCCCCNC[C@@H](O)[C@H]1O[C@H](OCCCc2ccccc2)[C@H]2OC(C)(C)O[C@H]21 [Compound 21, Phenylpropyl 6-deoxy 2,3-O-(1-methylethylidene)-6-heptylamino-α-D-mannofuranoside]",7,7.41,–
"C[C@@H](OCCN1CCCC1)[C@H]1O[C@H](OCCCc2ccccc2)[C@H]2OC(C)(C)O[C@H]21 [Compound 27, Phenylpropyl 6-deoxy 2,3-O-(1-methylethylidene)-5-O-(N'-ethylpyrrolidinyl)-α-D-mannofuranoside]",< 3,–,–
"CCCCCCCCCOCCCO[C@H]1O[C@H]([C@H](O)CN2CCOCC2)[C@@H]2OC(C)(C)O[C@H]12 [Compound 5, n-Nonyloxypropyl 2,3-O-(1-methylethylidene)-6-deoxy-6-morpholinyl-α-D-mannofuranoside]",17,–,–
"CC1(C)O[C@@H]2[C@H](O1)[C@@H](OCCCc1ccccc1)O[C@@H]2[C@H](O)CN1CCCC1 [Compound 20, Phenylpropyl 6-deoxy 2,3-O-(1-methylethylidene)-6-pyrrolidinyl-α-D-mannofuranoside]",59,87.1,–
"CCCCCCCCCOCCCO[C@H]1O[C@H]([C@@H](C)OCCCN(C)C)[C@@H]2OC(C)(C)O[C@H]12 [Compound 10, n-Nonyloxypropyl 2,3-O-(1-methylethylidene)-6-deoxy-5-O-(N,N-dimethylaminopropyl)-α-D-mannofuranoside]",3,11.5,–
"C[C@@H](OCCCN(C)C)[C@H]1O[C@H](OCCCc2ccccc2)[C@H]2OC(C)(C)O[C@H]21 [Compound 26, Phenylpropyl 6-deoxy 2,3-O-(1-methylethylidene)-5-O-3'-(N'N'-dimethylamino-n-propyl)-α-D-mannofuranoside]",18,58.9,–
"CC1(C)O[C@@H]2[C@H](O1)[C@@H](OCCCc1ccccc1)O[C@@H]2[C@H](O)CNCCCN1CCCC1 [Compound 22, Phenylpropyl 6-deoxy 2,3-O-(1-methylethylidene)-6-aminopropylpyrrolidinyl-α-D-mannofuranoside]",2.5,–,–
